Here are results for 30 compounds from patent US8394825B2, “Compound” (Sterix Limited, priority 2007, dated 2013).

One data set relates to DU145 cells. Put plainly: Antiproliferative assay in DU145 cells, WST-1 cell proliferation assay, 96 hours (GI50). Format: cell-based. Conditions: Homo sapiens, DU-145, 96 hours post-treatment. A digest of the protocol: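 DU145 cells seeded at 5000 cells/well, treated with […] compound or vehicle for 96 h. Viability read by WST-1, expressed as percent of mean control, GI50 derived; triplicate experiments.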
In general terms: Tetrazolium dyes change colour on reduction, which living cells bring about.

The target in the next data set is T1, E1-STS (Homo sapiens, UniProt P08842).
T1 sequence (P08842 22-583): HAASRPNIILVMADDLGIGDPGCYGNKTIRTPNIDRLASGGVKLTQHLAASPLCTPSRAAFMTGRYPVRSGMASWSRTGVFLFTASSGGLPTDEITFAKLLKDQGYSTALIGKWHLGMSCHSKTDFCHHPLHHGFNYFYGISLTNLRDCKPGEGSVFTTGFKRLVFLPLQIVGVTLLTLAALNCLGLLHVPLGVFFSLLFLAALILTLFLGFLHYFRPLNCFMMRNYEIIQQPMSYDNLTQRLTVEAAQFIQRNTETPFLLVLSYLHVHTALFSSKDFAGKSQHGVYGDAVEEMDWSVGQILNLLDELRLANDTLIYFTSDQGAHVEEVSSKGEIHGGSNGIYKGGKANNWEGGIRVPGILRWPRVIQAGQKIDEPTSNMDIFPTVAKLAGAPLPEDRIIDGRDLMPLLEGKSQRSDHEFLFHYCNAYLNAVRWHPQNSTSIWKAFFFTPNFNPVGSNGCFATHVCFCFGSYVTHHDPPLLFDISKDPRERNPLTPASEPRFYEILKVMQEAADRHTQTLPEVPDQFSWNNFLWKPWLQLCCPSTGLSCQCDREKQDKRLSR
The settings on record: cited from earlier work.

Turning to `COc1ccc(CN2CCc3cc(O)c(OC)cc3C2=O)cc1` [compound 159, 6-Hydroxy-7-methoxy-2-(4-methoxybenzyl)-3,4-dihydroisoquinolin-1(2H)-one], the melting point (as a rule, the temperature, or range, at which the solid turns liquid) is 171 to 172 °C. For the same compound, the concentration for 50% growth inhibition (GI50) (as a rule, the concentration that inhibits growth by half) in the data set with DU145 cells (triplicate) is over 100 µM. The matching figures for `COc1cccc(CN2CCc3cc(O)c(OC)cc3C2=O)c1` [compound 160, 6-Hydroxy-7-methoxy-2-(3-methoxy-benzyl)-3,4-dihydro-2H-isoquinolin-1-one]: 181 to 182 °C and over 100 µM.

In turn, `COc1cc2c(cc1O)CCN(Cc1ccccc1OC)C2=O` [compound 161, 6-Hydroxy-7-methoxy-2-(2-methoxybenzyl)-3,4-dihydro-2H-isoquinolin-1-one] gave a melting point of 164 to 165 °C. For the same compound, in the data set on DU145 cells (triplicate), the GI50 is over 100 µM. For the compound `COc1cc(CN2CCc3cc(O)c(OC)cc3C2=O)cc(OC)c1` [compound 162, 2-(3,5-dimethoxybenzyl)-6-hydroxy-7-methoxy-3,4-dihydro-2H-isoquinolin-1-one], the melting point lay within 166 to 167 °C. The same compound registered a GI50 with DU145 cells (triplicate) of over 100 µM. `COc1cc2c(cc1O)CCN(Cc1cc(OC)c(OC)c(OC)c1)C2=O` [compound 163, 6-hydroxy-7-methoxy-2-(3,4,5-trimethoxybenzyl)-3,4-dihydro-2H-isoquinolin-1-one] gave a melting point of 168 to 169 °C. The GI50 in the data set on DU145 cells (triplicate) is over 100 µM.

As for `COc1cccc(S(=O)(=O)N2CCc3cc(OCc4ccccc4)c(OC)cc3C2)c1` [compound 169, 6-Benzyloxy-7-methoxy-2-(3-methoxy-benzenesulfonyl)-1,2,3,4-tetrahydroisoquinoline], the melting point is 124 to 125 °C. The same compound came in with a 50% growth inhibitory concentration (GI50) with DU145 cells (triplicate) of over 100 µM. The matching figures for `COc1cc2c(cc1OCc1ccccc1)CCN(S(=O)(=O)c1cccc(OC(F)(F)F)c1)C2` [compound 170, 6-Benzyloxy-7-methoxy-2-(3-trifluoromethoxy-benzenesulfonyl)-1,2,3,4-tetrahydroisoquinoline]: 118 to 120 °C and over 100 µM.

In turn, `COc1cc2c(cc1OCc1ccccc1)CCN(S(=O)(=O)c1cccc(C)c1)C2` [compound 171, 6-Benzyloxy-7-methoxy-2-(toluene-3-sulfonyl)-1,2,3,4-tetrahydroisoquinoline] gave a melting point of 144 to 147 °C. In the data set on DU145 cells (triplicate), this compound gave a 50% growth inhibitory concentration (GI50) of over 100 µM. The matching figures for `COc1cc2c(cc1OCc1ccccc1)CCN(S(=O)(=O)c1cccc(C(F)(F)F)c1)C2` [compound 172, 6-Benzyloxy-7-methoxy-2-(3-trifluoromethyl-benzenesulfonyl)-1,2,3,4-tetrahydroisoquinoline]: 136 to 138.5 °C and over 100 µM. Compound `COc1cccc(S(=O)(=O)N2CCc3cc(O)c(OC)cc3C2)c1` [compound 178, 6-Hydroxy-7-methoxy-2-(3-methoxy-benzenesulfonyl)-1,2,3,4-tetrahydroisoquinoline] gave a melting point of 168 to 170 °C. The 50% growth inhibitory concentration (GI50) with DU145 cells (triplicate) is over 100 µM. The compound `COc1cc2c(cc1O)CCN(S(=O)(=O)c1cccc(OC(F)(F)F)c1)C2` [compound 179, 6-Hydroxy-7-methoxy-2-(3-trifluoromethoxy-benzenesulfonyl)-1,2,3,4-tetrahydroisoquinoline] gave a melting point of 202 to 203 °C. In the data set with DU145 cells (triplicate), this compound returned a concentration for 50% growth inhibition (GI50) of over 100 µM. The matching figures for `COc1cc2c(cc1O)CCN(S(=O)(=O)c1cccc(C)c1)C2` [compound 180, 6-Hydroxy-7-methoxy-2-(toluene-3-sulfonyl)-1,2,3,4-tetrahydroisoquinoline]: 176 to 179 °C and over 100 µM. In the same order, the values of `COc1cc2c(cc1O)CCN(S(=O)(=O)c1cccc(C(F)(F)F)c1)C2` [compound 181, 6-Hydroxy-7-methoxy-2-(3-trifluoromethyl-benzenesulfonyl)-1,2,3,4-tetrahydroisoquinoline] are 178 to 180 °C and over 100 µM. In the same order, the values of `COc1cc2c(cc1O)CCN(S(=O)(=O)c1cccc(Cl)c1)C2` [compound 182, 2-(3-Chloro-benzenesulfonyl)-6-hydroxy-7-methoxy-1,2,3,4-tetrahydroisoquinoline] are 175 to 178 °C and over 100 µM. For `COc1cc2c(cc1O)CCN(S(=O)(=O)c1ccccc1C#N)C2` [compound 183, 2-(2-Cyano-benzenesulfonyl)-6-hydroxy-7-methoxy-1,2,3,4-tetrahydroisoquinoline], the melting point is 164 to 167 °C. Further, in the data set with DU145 cells (triplicate), the 50% growth inhibitory concentration (GI50) is over 100 µM.

`COc1cc2c(cc1O)CCN(S(=O)(=O)c1ccccc1OC)C2` [compound 184, 6-Hydroxy-7-methoxy-2-(2-methoxy-benzenesulfonyl)-1,2,3,4-tetrahydroisoquinoline]: the melting point fell in the range of 140 to 142 °C. The GI50 in the data set with DU145 cells (triplicate) is over 100 µM. Turning to `COc1ccc(S(=O)(=O)N2CCc3cc(O)c(OC)cc3C2)cc1` [compound 185, 6-Hydroxy-7-methoxy-2-(4-methoxy-benzenesulfonyl)-1,2,3,4-tetrahydroisoquinoline], the melting point fell in the range of 147 to 149 °C. In addition, in the data set with DU145 cells (triplicate), the GI50 was over 100 µM. `COc1cc2c(cc1O)CCN(S(=O)(=O)c1cccc(C#N)c1)C2` [compound 186, 2-(3-Cyano-benzenesulfonyl)-6-hydroxy-7-methoxy-1,2,3,4-tetrahydroisoquinoline] showed a melting point of 204 to 206 °C. Besides, in the data set with DU145 cells (triplicate), the 50% growth inhibitory concentration (GI50) was over 100 µM. The matching figures for `COc1cc2c(cc1OCc1ccccc1)CCN(S(=O)(=O)c1ccccc1OC)C2=O` [compound 197, 6-Benzyloxy-7-methoxy-2-(2-methoxy-benzenesulfonyl)-3,4-dihydro-2H-isoquinolin-1-one]: 202 to 203 °C and over 100 µM. In turn, `COc1cc2c(cc1OCc1ccccc1)CCN(S(=O)(=O)c1cccc(Cl)c1)C2=O` [compound 199, 6-Benzyloxy-2-(3-chloro-benzenesulfonyl)-7-methoxy-3,4-dihydro-2H-isoquinolin-1-one] showed a melting point of 155 to 158 °C. In the data set with DU145 cells (triplicate), the GI50 was over 100 µM. In the same order, the values of `COc1cc2c(cc1O)CCN(S(=O)(=O)c1ccccc1OC)C2=O` [compound 200, 6-Hydroxy-7-methoxy-2-(2-methoxy-benzenesulfonyl)-3,4-dihydro-2H-isoquinolin-1-one] are 222 to 224 °C and over 100 µM. The matching figures for `COc1cccc(S(=O)(=O)N2CCc3cc(O)c(OC)cc3C2=O)c1` [compound 201, 6-Hydroxy-7-methoxy-2-(3-methoxy-benzenesulfonyl)-3,4-dihydro-2H-isoquinolin-1-one]: 195 to 197 °C and over 100 µM. As to `COc1ccc(S(=O)(=O)N2CCc3cc(O)c(OC)cc3C2=O)cc1` [compound 202, 6-Hydroxy-7-methoxy-2-(4-methoxy-benzenesulfonyl)-3,4-dihydro-2H-isoquinolin-1-one], the melting point fell in the range of 202 to 204 °C. Besides, the GI50 in the data set with DU145 cells (triplicate) was over 100 µM. In turn, `COc1cc2c(cc1O)CCN(S(=O)(=O)c1cccc(Cl)c1)C2=O` [compound 203, 2-(3-Chloro-benzenesulfonyl)-6-hydroxy-7-methoxy-3,4-dihydro-2H-isoquinolin-1-one] yielded a melting point of 178 to 181 °C. This compound also yielded a GI50 in the data set on DU145 cells (50% growth inhibition) of over 100 µM.

Compound `COc1cccc(CN2Cc3cc(OC)c(O)cc3CC2C)c1` (centres unmarked) [compound 217, 2-(3-Methoxybenzyl)-1,2,3,4-tetrahydro-7-methoxy-3-methylisoquinolin-6-ol] displayed a melting point of 100 to 105 °C. For the same compound, the GI50 with DU145 cells (50% growth inhibition) was under 10 µM. In the same order, the values of `COc1cc(CN2Cc3cc(OC)c(O)cc3CC2C)cc(OC)c1` (centres unmarked) [compound 218, 2-(3,5-Dimethoxybenzyl)-1,2,3,4-tetrahydro-7-methoxy-3-methylisoquinolin-6-ol] are 155 to 158 °C and 10 to 50 µM. Compound `COc1cc2c(cc1O)CC(C)(C)N(C(=O)c1cc(OC)c(OC)c(OC)c1)C2` [compound 234, (6-Hydroxy-7-methoxy-3,3-dimethyl-3,4-dihydro-1H-isoquinolin-2-yl)-(3,4,5-trimethoxy-phenyl)-methanone] registered a melting point of 159 to 162 °C. This compound came in with a 50% growth inhibitory concentration (GI50) in the data set with DU145 cells (50% growth inhibition) of over 100 µM.

Regarding `COc1cc2c(cc1OS(N)(=O)=O)CC(C)(C)N(C(=O)c1cc(OC)c(OC)c(OC)c1)C2` [compound 236, Sulfamic acid 7-methoxy-3,3-dimethyl-2-(3,4,5-trimethoxy-benzoyl)-1,2,3,4-tetrahydro-isoquinolin-6-yl ester], the melting point lay in the range of 172 to 176 °C. The compound further returned a GI50 in the data set on DU145 cells (50% growth inhibition) of over 100 µM. The matching figures for `COc1cc(OC)cc(C(=O)N2Cc3cc(OC)c(OS(N)(=O)=O)cc3CC2(C)C)c1` [compound 237, Sulfamic acid 2-(3,5-dimethoxy-benzoyl)-7-methoxy-3,3-dimethyl-1,2,3,4-tetrahydro-isoquinolin-6-yl ester]: > 180 °C (dec.) and over 100 µM. oestrone-3-N-sulphamate: the “mode of E1-STS enzyme inhibition (inactivation)” value at E1-STS is reported as “weaker non-time-dependent inactivators”.
